Tests used:
[1] = Plasma and nerve tissue pharmacokinetics, single oral dose in non-fasted mice; assay type: in vivo; details: male, CD-1, mouse, 50 mg/kg
[2] = test system: mitofusin mRNA expression; details: transcriptional enhancer of mitofusin mRNA expression; cited from earlier work
[3] = test system: Mfn2-null (i.e. expressing Mfn1 only) murine embryonic fibroblasts; assay: Mitochondrial elongation; assay type: cell-based, mouse; details: dose-response, compared with 2; result in words
[4] = mice, IV, 10 mg/kg, plasma; cited from earlier work

## O=C(N[C@H]1CC[C@H](O)CC1)[C@@H]1C[C@H]1CCCc1ccccc1 [Compound 5B, N-(4-hydroxycyclohexyl)-2-(3-phenylpropyl)cyclopropane-1-carboxamide]
[1]; brain and plasma
  Kp: 0.394

## Cc1oncc1C(=O)Nc1ccc(C(F)(F)F)cc1 [leflunomide]
[2]
  effective concentrations: 10 to 50 µM

## O=C(N[C@H]1CC[C@H](O)CC1)C1CC1CCCc1ccccc1 (stereo partly shown) [Compound 5, N-(4-hydroxycyclohexyl)-2-(3-phenylpropyl)cyclopropane-1-carboxamide]
[1]; plasma
  MRT inf: 3.58 h
  Tmax: 30 min

## O=C(CCCCc1ccccc1)N[C@H]1CC[C@H](O)CC1 [Compound 3, N-((1r,4r)-4-hydroxycyclohexyl)-5-phenylpentanamide]
[3]
  mitofusin activation measured as ability to promote mitochondrial fusion (increased aspect ratio): largely abrogated mitofusin activation

## O=C(CCCCCc1ccccc1)N[C@H]1CC[C@H](O)CC1 [Compound 2]
[4]
  C0: 50,600 ng/mL

## O=C(CCCc1ccccc1)N[C@H]1CC[C@H](O)CC1 [Compound 4, N-((1r,4r)-4-hydroxycyclohexyl)-4-phenylbutanamide]
[3]
  mitofusin activation measured as ability to promote mitochondrial fusion (increased aspect ratio): largely abrogated mitofusin activation

Source: PMC8632069 (Journal of medicinal chemistry, 2021)
